# Assay results taken from patent US8802597B2, “Herbicidal pyrimidines” (E I du Pont de Nemours and Company, priority 2003, dated 2014).
# Like-named read-outs stand apart in the source and are kept apart here.
# How the values were obtained:
# Test in all cases: Test C pre/postemergence
# Assay type in all cases: in vivo
# [1] = test system: morningglory (Ipomoea coccinea); conditions: Ipomoea; for pest or weed control at 62 g/ha: 62 g ai/ha; for pest or weed control at 125 g/ha: 125 g ai/ha; for pest or weed control at 250 g/ha: 250 g ai/ha; for pest or weed control at 500 g/ha: 500 g ai/ha
# Method in brief: (§1)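 Greenhouse pot test: seeds treated preemergence, or plants at 2–18 cm (1- to 4-leaf stage) treated postemergence, with compound in non-phytotoxic solvent plus surfactant. Visual rating versus untreated controls after 12–14 days, scale 0 (no effect) to 100 (complete control); dash means not tested.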
# [2] = test system: cocklebur (Xanthium strumarium); conditions: Xanthium strumarium; for pest or weed control at 62 g/ha: 62 g ai/ha; for pest or weed control at 125 g/ha: 125 g ai/ha; for pest or weed control at 250 g/ha: 250 g ai/ha; for pest or weed control at 500 g/ha: 500 g ai/ha
# Method in brief: as §1
# [3] = test system: woolly cupgrass (Eriochloa villosa); conditions: Eriochloa villosa; for pest or weed control at 62 g/ha: 62 g ai/ha; for pest or weed control at 125 g/ha: 125 g ai/ha; for pest or weed control at 250 g/ha: 250 g ai/ha; for pest or weed control at 500 g/ha: 500 g ai/ha
# Method in brief: as §1
# [4] = test system: crabgrass (Digitaria sanguinalis); conditions: Digitaria sanguinalis; for pest or weed control at 62 g/ha: 62 g ai/ha; for pest or weed control at 125 g/ha: 125 g ai/ha; for pest or weed control at 250 g/ha: 250 g ai/ha; for pest or weed control at 500 g/ha: 500 g ai/ha
# Method in brief: as §1
# [5] = test system: giant foxtail (Setaria faberii); conditions: Setaria faberi; for pest or weed control at 125 g/ha: 125 g ai/ha; for pest or weed control at 500 g/ha: 500 g ai/ha; for pest or weed control at 62 g/ha: 62 g ai/ha; for pest or weed control at 250 g/ha: 250 g ai/ha
# Method in brief: as §1
# [6] = test system: johnsongrass (Sorghum halepense); conditions: Sorghum halepense; for pest or weed control at 62 g/ha: 62 g ai/ha; for pest or weed control at 125 g/ha: 125 g ai/ha
# Method in brief: as §1
# [7] = post-emergence, Postemergence, scale 0 to 100 (0 no effect, 100 complete control), read-out: Morningglory plant response rating
# [8] = post-emergence, Postemergence, scale 0 to 100, read-out: Plant response rating, Morningglory
# [9] = pre-emergence, Preemergence, scale 0 to 100, read-out: Plant response rating, Morningglory
# [10] = post-emergence, Postemergence, scale 0 to 100 (0 no effect, 100 complete control), read-out: Cocklebur plant response rating
# [11] = post-emergence, Postemergence, scale 0 to 100, read-out: Plant response rating, Cocklebur
# [12] = pre-emergence, Preemergence, scale 0 to 100, read-out: Plant response rating, Cocklebur
# [13] = post-emergence, Postemergence, scale 0 to 100 (0 no effect, 100 complete control), read-out: Cupgrass, Woolly plant response rating
# [14] = post-emergence, Postemergence, scale 0 to 100, read-out: Plant response rating, Cupgrass, Woolly
# [15] = pre-emergence, Preemergence, scale 0 to 100, read-out: Plant response rating, Cupgrass, Woolly
# [16] = post-emergence, Postemergence, scale 0 to 100 (0 no effect, 100 complete control), read-out: Crabgrass plant response rating
# [17] = post-emergence, Postemergence, scale 0 to 100, read-out: Plant response rating, Crabgrass
# [18] = pre-emergence, Preemergence, scale 0 to 100, read-out: Plant response rating, Crabgrass
# [19] = post-emergence, Postemergence, scale 0 to 100 (0 no effect, 100 complete control), read-out: Foxtail, Giant plant response rating
# [20] = post-emergence, Postemergence, scale 0 to 100, read-out: Plant response rating, Foxtail, Giant
# [21] = pre-emergence, Preemergence, scale 0 to 100, read-out: Plant response rating, Foxtail, Giant
# [22] = post-emergence, Postemergence, scale 0 to 100 (0 no effect, 100 complete control), read-out: Johnsongrass plant response rating
compound,measurement,setting,value
"CCOC(=O)c1nc(C2CC2)nc(N)c1Cl [Compound 4, ethyl 6-amino-5-chloro-2-cyclopropyl-4-pyrimidinecarboxylate]",pest or weed control at 62 g/ha,[1]; [7],15%
same,pest or weed control at 125 g/ha,[1]; [7],100%
same,pest or weed control at 250 g/ha,[1]; [8],100%
same,pest or weed control at 500 g/ha,[1]; [8],100%
same,pest or weed control at 62 g/ha,"[1]; pre-emergence, Preemergence, scale 0 to 100, 0 no effect, 100 complete control, read-out: Plant response rating, Morningglory",100%
same,pest or weed control at 125 g/ha,[1]; [9],100%
same,pest or weed control at 250 g/ha,[1]; [9],100%
same,pest or weed control at 500 g/ha,[1]; [9],100%
same,pest or weed control at 62 g/ha,[2]; [10],85%
same,pest or weed control at 125 g/ha,[2]; [10],100%
same,pest or weed control at 250 g/ha,[2]; [11],100%
same,pest or weed control at 500 g/ha,[2]; [11],100%
same,pest or weed control at 62 g/ha,"[2]; pre-emergence, Preemergence, scale 0 to 100, 0 no effect, 100 complete control, read-out: Plant response rating, Cocklebur",80%
same,pest or weed control at 125 g/ha,[2]; [12],95%
same,pest or weed control at 250 g/ha,[2]; [12],100%
same,pest or weed control at 500 g/ha,[2]; [12],100%
same,pest or weed control at 62 g/ha,[3]; [13],60%
same,pest or weed control at 125 g/ha,[3]; [13],70%
same,pest or weed control at 250 g/ha,[3]; [14],85%
same,pest or weed control at 500 g/ha,[3]; [14],95%
same,pest or weed control at 62 g/ha,"[3]; pre-emergence, Preemergence, scale 0 to 100, 0 no effect, 100 complete control, read-out: Plant response rating, Cupgrass, Woolly",0%
same,pest or weed control at 125 g/ha,[3]; [15],80%
same,pest or weed control at 250 g/ha,[3]; [15],95%
same,pest or weed control at 500 g/ha,[3]; [15],95%
same,pest or weed control at 62 g/ha,[4]; [16],70%
same,pest or weed control at 125 g/ha,[4]; [16],75%
same,pest or weed control at 250 g/ha,[4]; [17],75%
same,pest or weed control at 500 g/ha,[4]; [17],80%
same,pest or weed control at 62 g/ha,"[4]; pre-emergence, Preemergence, scale 0 to 100, 0 no effect, 100 complete control, read-out: Plant response rating, Crabgrass",40%
same,pest or weed control at 125 g/ha,[4]; [18],65%
same,pest or weed control at 250 g/ha,[4]; [18],85%
same,pest or weed control at 500 g/ha,[4]; [18],95%
same,pest or weed control at 125 g/ha,[5]; [19],75%
same,pest or weed control at 500 g/ha,[5]; [20],95%
same,pest or weed control at 62 g/ha,[5]; [19],60%
same,pest or weed control at 250 g/ha,[5]; [20],85%
same,pest or weed control at 62 g/ha,"[5]; pre-emergence, Preemergence, scale 0 to 100, 0 no effect, 100 complete control, read-out: Plant response rating, Foxtail, Giant",0%
same,pest or weed control at 125 g/ha,[5]; [21],40%
same,pest or weed control at 250 g/ha,[5]; [21],75%
same,pest or weed control at 500 g/ha,[5]; [21],85%
same,pest or weed control at 62 g/ha,[6]; [22],70%
same,pest or weed control at 125 g/ha,[6]; [22],80%
same,pest or weed control at 250 g/ha,"[6]; post-emergence, Postemergence, 250 g ai/ha, scale 0 to 100, read-out: Plant response rating, Johnsongrass",95%
same,pest or weed control at 500 g/ha,"[6]; post-emergence, Postemergence, 500 g ai/ha, scale 0 to 100, read-out: Plant response rating, Johnsongrass",95%
same,pest or weed control at 62 g/ha,"[6]; pre-emergence, Preemergence, scale 0 to 100, 0 no effect, 100 complete control, read-out: Plant response rating, Johnsongrass",50%
same,pest or weed control at 125 g/ha,"[6]; pre-emergence, Preemergence, scale 0 to 100, read-out: Plant response rating, Johnsongrass",70%
